These results are taken from ChEMBL document CHEMBL5696441 (Nat Chem Biol, 2011).

Assay [1] relates to Epidermal growth factor receptor (Homo sapiens), P00533 [UNDEFINED MUTATION]. Put plainly: Inhibition of EGFR E746-A750del mutant (unknown origin) assessed as remaining activity at 1 uM by Kinome scan method relative to control.
In assay [2] the target is T1, Ephrin type-A receptor 3 (Homo sapiens) (UniProt P29320).
T1 sequence (whole entry): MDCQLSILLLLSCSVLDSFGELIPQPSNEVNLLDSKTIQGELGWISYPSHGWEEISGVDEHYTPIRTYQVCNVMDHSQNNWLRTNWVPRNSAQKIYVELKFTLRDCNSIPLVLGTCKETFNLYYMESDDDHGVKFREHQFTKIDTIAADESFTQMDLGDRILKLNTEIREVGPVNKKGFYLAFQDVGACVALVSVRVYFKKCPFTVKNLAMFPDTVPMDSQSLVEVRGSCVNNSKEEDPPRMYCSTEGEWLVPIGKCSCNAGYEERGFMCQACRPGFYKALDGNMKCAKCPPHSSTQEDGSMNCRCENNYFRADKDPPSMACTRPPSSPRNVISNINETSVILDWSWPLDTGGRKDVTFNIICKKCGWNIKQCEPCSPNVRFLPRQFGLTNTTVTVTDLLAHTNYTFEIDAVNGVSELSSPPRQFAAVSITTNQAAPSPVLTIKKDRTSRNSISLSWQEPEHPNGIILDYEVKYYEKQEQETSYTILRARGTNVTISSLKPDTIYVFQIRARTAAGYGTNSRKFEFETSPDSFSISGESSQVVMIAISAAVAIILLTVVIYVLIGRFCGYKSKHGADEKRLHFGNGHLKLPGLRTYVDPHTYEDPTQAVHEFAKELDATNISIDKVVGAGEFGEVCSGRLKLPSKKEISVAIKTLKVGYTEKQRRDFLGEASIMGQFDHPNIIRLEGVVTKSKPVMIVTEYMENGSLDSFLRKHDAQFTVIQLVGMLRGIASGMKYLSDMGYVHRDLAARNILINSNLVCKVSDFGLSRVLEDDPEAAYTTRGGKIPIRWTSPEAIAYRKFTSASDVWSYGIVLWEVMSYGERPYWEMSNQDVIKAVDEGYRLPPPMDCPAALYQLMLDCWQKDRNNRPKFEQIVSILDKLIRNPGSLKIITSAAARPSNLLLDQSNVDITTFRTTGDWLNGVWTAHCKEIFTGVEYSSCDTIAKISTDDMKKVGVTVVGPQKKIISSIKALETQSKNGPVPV
Put plainly: Inhibition of human EPHA3 assessed as residual activity at 1 uM using polyEY as substrate in presence of 33P-ATP by ProQinase assay relative to control.

Assay [3] concerns the target T2, Mitogen-activated protein kinase kinase kinase kinase 2 (Homo sapiens) (UniProt Q12851).
T2 sequence (whole entry): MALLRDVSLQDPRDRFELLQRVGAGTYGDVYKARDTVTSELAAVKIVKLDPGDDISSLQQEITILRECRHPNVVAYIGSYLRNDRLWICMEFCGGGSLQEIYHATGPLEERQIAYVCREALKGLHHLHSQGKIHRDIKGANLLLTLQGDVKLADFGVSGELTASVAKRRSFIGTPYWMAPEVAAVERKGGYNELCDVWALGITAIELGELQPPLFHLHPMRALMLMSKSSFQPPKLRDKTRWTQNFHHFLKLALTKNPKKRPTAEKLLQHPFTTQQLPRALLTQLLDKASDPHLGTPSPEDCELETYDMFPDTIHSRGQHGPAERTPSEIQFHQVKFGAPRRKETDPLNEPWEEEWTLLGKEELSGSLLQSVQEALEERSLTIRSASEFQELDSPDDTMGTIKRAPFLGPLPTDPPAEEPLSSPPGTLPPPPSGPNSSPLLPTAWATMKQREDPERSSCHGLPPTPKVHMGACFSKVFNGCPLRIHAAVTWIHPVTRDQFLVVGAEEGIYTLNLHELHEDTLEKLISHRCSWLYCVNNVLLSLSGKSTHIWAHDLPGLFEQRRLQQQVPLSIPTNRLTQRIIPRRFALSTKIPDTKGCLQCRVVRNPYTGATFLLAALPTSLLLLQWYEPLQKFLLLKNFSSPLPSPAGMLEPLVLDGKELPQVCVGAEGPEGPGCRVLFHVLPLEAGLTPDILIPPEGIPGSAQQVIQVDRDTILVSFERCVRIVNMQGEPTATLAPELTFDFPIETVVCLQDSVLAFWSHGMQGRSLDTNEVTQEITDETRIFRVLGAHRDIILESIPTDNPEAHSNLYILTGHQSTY
Put plainly: Inhibition of human MAP4K2 assessed as residual activity at 1 uM using 3xChocktide-PKC as substrate in presence of 33P-ATP by ProQinase assay relative to control.

The target in assay [4] is 3-phosphoinositide-dependent protein kinase 1 (Homo sapiens) (UniProt O15530). Briefly: Inhibition of human PDK1 assessed as residual activity at 1 uM using bio-4xCHKT as substrate in presence of 33P-ATP by ProQinase assay relative to control.
3-phosphoinositide-dependent protein kinase 1 (Homo sapiens), sequence (O15530 whole entry, looked up): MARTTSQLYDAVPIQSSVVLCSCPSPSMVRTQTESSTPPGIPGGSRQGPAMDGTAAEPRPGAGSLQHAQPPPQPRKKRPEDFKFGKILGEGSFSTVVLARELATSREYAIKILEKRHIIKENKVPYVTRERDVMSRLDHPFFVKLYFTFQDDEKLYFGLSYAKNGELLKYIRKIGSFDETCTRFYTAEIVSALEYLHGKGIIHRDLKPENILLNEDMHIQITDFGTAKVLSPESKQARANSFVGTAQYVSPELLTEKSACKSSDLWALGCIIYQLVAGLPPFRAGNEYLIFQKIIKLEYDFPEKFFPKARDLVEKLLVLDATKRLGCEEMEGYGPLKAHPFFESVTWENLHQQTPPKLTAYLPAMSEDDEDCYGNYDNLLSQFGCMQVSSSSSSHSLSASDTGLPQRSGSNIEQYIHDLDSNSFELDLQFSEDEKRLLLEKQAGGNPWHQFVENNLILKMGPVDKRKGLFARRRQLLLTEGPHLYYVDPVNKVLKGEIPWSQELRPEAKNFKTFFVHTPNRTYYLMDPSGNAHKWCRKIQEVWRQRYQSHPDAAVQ

Epidermal growth factor receptor (Homo sapiens), P00533 [UNDEFINED MUTATION], sequence (P00533 whole entry, looked up, stated change not applied): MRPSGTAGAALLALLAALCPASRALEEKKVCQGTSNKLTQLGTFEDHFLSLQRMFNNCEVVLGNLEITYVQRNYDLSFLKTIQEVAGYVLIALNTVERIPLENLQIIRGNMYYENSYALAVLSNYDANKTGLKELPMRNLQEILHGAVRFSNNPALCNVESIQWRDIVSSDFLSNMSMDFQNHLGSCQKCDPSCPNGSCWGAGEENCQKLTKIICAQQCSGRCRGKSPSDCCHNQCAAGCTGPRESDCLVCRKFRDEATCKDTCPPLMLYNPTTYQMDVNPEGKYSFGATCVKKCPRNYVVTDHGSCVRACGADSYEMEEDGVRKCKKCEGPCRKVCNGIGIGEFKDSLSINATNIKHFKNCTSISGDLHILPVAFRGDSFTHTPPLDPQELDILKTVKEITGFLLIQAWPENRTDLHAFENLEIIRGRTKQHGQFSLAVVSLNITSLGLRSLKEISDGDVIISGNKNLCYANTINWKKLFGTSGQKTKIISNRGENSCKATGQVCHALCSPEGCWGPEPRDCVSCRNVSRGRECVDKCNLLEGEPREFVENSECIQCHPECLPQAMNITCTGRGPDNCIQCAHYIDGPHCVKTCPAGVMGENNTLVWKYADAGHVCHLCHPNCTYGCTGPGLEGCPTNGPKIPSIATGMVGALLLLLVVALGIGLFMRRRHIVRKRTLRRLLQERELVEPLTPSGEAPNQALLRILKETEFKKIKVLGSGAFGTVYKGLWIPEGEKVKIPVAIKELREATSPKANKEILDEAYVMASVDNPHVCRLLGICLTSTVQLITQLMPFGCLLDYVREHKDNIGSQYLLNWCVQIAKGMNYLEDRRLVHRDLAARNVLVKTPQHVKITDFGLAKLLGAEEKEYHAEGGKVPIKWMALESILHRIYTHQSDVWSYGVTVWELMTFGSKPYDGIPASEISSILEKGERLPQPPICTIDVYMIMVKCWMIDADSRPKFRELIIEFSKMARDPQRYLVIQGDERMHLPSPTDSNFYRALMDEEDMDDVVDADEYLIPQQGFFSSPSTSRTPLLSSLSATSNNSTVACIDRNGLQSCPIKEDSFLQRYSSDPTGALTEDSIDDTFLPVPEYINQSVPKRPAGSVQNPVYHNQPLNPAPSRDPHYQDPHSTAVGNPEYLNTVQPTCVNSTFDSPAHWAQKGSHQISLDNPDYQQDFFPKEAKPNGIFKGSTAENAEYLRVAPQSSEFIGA

With `O=C1c2ccc(Nc3ccc(F)cc3F)cc2CCc2ccc(OC[C@H](O)CO)cc21` [Skepinone-L], the Activity was 72% in assay [1], 107% in assay [2], 89% in assay [3] and 97% in assay [4].
